Laboratory results published in patent publication US7074925B1, “N-substituted derivatives of 5-oxyiminobarbituric acid” (priority 1998, dated 2006).
Converted amounts (≈) assume the structure as drawn.

Tests used:
[1] = Antioxidant action, riboflavine chemiluminescence; type: biochemical; conditions: solvent water, phosphate buffer pH 9.1
Source text: To assess a general antioxidant activity the method of riboflavine chemiluminescence was used. The test substance was introduced into a system consisted of phosphate buffer (pH 9.1), solution of riboflavine, and solution of bivalent iron sulfate. Chemiluminescence was initiated by 0.1% solution of hydrogen peroxide and registered by means of luminometer. […] Ascorbic acid was used as a reference agent.

[2] = test system: Mycobacterium tuberculosis H37RV; experiment: Antimicrobial action by serial dilution (MIC), M. tuberculosis; type: cell-based; conditions: Soton medium with 10% horse serum, 72-hour cultivation at 37° C.; for MIC: Mycobacterium tuberculosis
[3] = test system: Mycobacterium smegmatis ATCC607; experiment: Antimicrobial action by serial dilution (MIC), M. smegmatis; type: cell-based; conditions: for MIC: Mycolicibacterium smegmatis, ATCC607, M. smegmatis ATCC 607, medium N-1, 72-hour cultivation at 37° C.
[4] = Determination of maximal tolerable dose; type: in vivo; conditions: oral administration, mice, observed 72 hours; 300 was the maximally utilized one
Protocol: Tested substance was introduced perorally (in dose of 300 mg/kg) through a gastric tube or intraperitoneally (in dose of 100 mg/kg) to no-breed white mice with mass 18-20 g (each tested group consisted of 3 males and 3 females). Then the mouse state was observed during 72 hours. Absence of symptoms characteristic of toxic effects, or absence of animal death during the given time allows to make a conclusion that the toxicity of the test substance is low. If acute toxicity effects are observed, the dose is reduced to find maximal tolerable dose.

[5] = test system: primary culture of human lymphocytes (IFN-α production); experiment: Interferon-inducing activity in primary culture of human lymphocytes; type: cell-based
Protocol: Interferon synthesis induction caused by the claimed compounds was conducted on a primary culture of human lymphocytes (it is these cells in a human organism that are the main producers of interferons). To obtain lymphocyte culture, fresh blood (within 12 hours after sampling) from healthy donors (not of group II) was used. To separate lymphocytes, heparinized blood obtained from healthy donor was centrifuged in a density gradient of ficoll-verografin of […] in order to extract a fraction of immunocompetent cells. This fraction was selected and diluted with the nutrient medium RPMI-1640, containing 5% of fetal calf serum, 0.3 mg/ml of L-glutamin, 100 un/ml of penicillin, and […] of streptomycin. The concentration of lymphocytes was considered after dying them with methylene blue and calculation of cell number in Goryaev chamber. Initial solutions of the claimed compounds were diluted with the nutrient medium RPMI-1640 so that the final concentrations of the compounds, which were obtained after introduction of lymphocyte suspension, constituted the raw: 100 μg/ml, 10 μg/ml, 1 μg/ml. The final concentration of lymphocytes in the induction mixture was 3×10^6 cell/ml.
In parallels to the test samples the following controls were done: • 1). Control of spontaneous production of interferons (IFN) by lymphocytes. • 2). […] Control of spontaneous production of interferons in presence of DMSO taken in an amount corresponding to the test samples.
Control and test samples were incubated for 24 hours at the temperature of 37° C. After incubation, the samples were centrifuged at 2,000 G to deposit cell elements, and IFN-containing supernatant was separate out of samples; then the supernatant was analyzed for the quantitative content of IFN. Cell deposition was resuspended in the previous volume of nutrient medium, coloured with vital dye trypan blue, and cell number was counted in the Goryaev chamber (as described above) to determine cytotoxic action of the compounds. The quantitative determination of content of IFN in control and test samples was conducted using the immunoenzyme test system Pro Con IF2 Plus, that is intended for determination of IFN-α, which is produced by TOO “Protein contour”. The solid-phase immunoenzyme method, utilizing horse radish peroxidase as an indicator enzyme, was used to determine the quantity of interferon in the samples. Activity of the bonded peroxidase was measured using an automatic photometer for microplates with a microprocessor at the wavelength of 450 nm.
Based on the obtained results, a calibrating curve was formed, which allows to obtain data expressed in international units (IU) of activity, using the microprocessor of the automatic photometer. The results of the analysis are expressed in IU of activity of IFN per ml in the given induction system, which contains 3×10^4 lymphocyte/ml. Each test and control point was investigated in four parallels.
Controls of immunoenzyme reaction: • 1. Control of DMSO with a nutrient medium. • 2. Control of system components (according to an instruction).
The obtained data were undergone a statistical analysis using t-criterion, and calculation of the confident interval of probability at p=0.05 was carried out. Coincidence of results in the parallel tests was analyzed.

[6] = test system: Herpes virus of the type I (HSV-I/Leningrad/248/88); experiment: Effect on Herpes virus, cytopathogenic action on Vero cells; type: cell-based, Herpes Simplex virus; conditions: compound 100 μg/ml
Protocol: An antiviral activity was determined with respect to Herpes virus of the type I (HSV-I/Leningrad/248/88) by means of commonly accepted method. Viruses were grown on a continuous culture of Vero cells that have been received from the Bank of Cell Cultures of the Institute of Cytology of the Russian Academy of Science.
A virus in a final concentration of […] and the claimed compounds dissolved in DMSO in final concentrations of 100, 10 and 1 mg/l were added to cells that were grown on the RPMI-1640 medium with 10% fetal calf serum and placed into wells of the 96-well plate. 5 separate wells were used for each of tested concentrations of an agent. The plate was incubated during 60 minutes at 38° C. in a CO2-incubator. After the incubation, the virus was removed and then a fresh medium containing claimed compounds in used concentrations was again introduced.
Results were evaluated basing on presence of cytopathogenic action on the cells after 36 hours of incubation at 38° C. in the CO2-incubator.
The next controls were used in the experiment: • 1. Control of cell culture (capability to grow properly) • 2. Control of the virus (evaluation of capability for reproduction) • 3. Control of an antiviral activity of an antiviral drug Acyclovir • 4. Control of compounds (toxicity of compounds) • 5. Control of a solvent (DMSO) for toxicity.
To estimate a cytopathic action of the virus, a quantity of the unchanged cells was calculated in 100 visual fields formed by a special net of an eyepiece of the inverted microscope.

[7] = test system: Human's platelet aggregation; experiment: Antiaggregational properties, ADP-induced platelet aggregation; type: cell-based; conditions: 100 μg/ml, ADP […], platelet-enriched human plasma
Source text: Human's platelet aggregation was investigated in plasma of healthy 50±3 years donors that was enriched by thrombocytes, by means of aggregometer FRM-1. […] Magnitude of a maximum non-reversible platelet aggregation in the control samples (solvent) was adopted as 100%, and that in tested samples was counted as the percentage compared to the control.

[8] = Psychodepressive activity, behavioral score; type: in vivo, mice; conditions: per oral 300 mg/kg, one hour after dosing; total 60, less than 40 significant
Protocol: Each parameter scores 2 points for an each mouse that had unchanged behavior. The total point sum was 60 (2×10×3 mice). Reducing score to less than 40 one hour after dosing with a substance per oral (300 mg/kg) denoted significant behavioral depression. Haloperidol was utilized as a reference agent.

[9] = Hepatoprotective activity, CCl4 liver damage (AlAT); type: in vivo, rats; conditions: for AlAT: 20 mg/kg perorally 30 minutes before and 7 hours after CCl4, 24 hours, CCl4 control 0.83 ± 0.21, intact 0.27 ± 0.04; for % of reducing AlAT: 20 mg/kg perorally, relative to CCl4 control
Protocol: CCl4 dissolved in 50% olive oil (1 ml/kg) was subcutaneously administrated to rats. Test substances were administrated perorally in a dose of 20 mg/kg 30 minutes before and 7 hours after the CCL4 administration. The activity of alanine-aminotranspherase (AlAT), which is a marker enzyme of liver parenchyma damage, was assessed twenty-four hours later. Reducing of enzyme amount by more than 30% relative to the control group was considered as evidence of hepatoprotective properties of the substance.
Silymarin in a dose of 100 mg/kg was used as a reference agent.

[10] = Analgesic activity, tail withdrawal from radiant heat; type: in vivo, mice
Protocol: The time needed to draw back a tail placed under a directed source of radiant heat was estimated in a group of 3 mice. Prolongation of the response time by more than 50% after intraperitoneal dosing a substance (30 mg/kg) indicated analgesic activity. Morphine sulfate (2 mg/kg) was utilized as a reference agent.

[11] = Hypoglycemic activity after glucose load; type: in vivo, mice; conditions: 100 mg/kg perorally, glucose 1000 mg/kg s.c.
Protocol: Test substance (100 mg/kg) was perorally administrated to fasted mice, and, immediately after that, solution of glucose (1000 mg/kg) was administrated subcutaneously. Glucose content in blood was determined in a hour by the orthotoluidine method. Reducing of glucose level by more than 20% relative to control animals indicated hypoglycemic properties. Glibenclamide (I mg/kg) was utilized as a reference agent.

[12] = Antiulcerous action, water immersion stress with immobilization; type: in vivo, rats; conditions: 20 mg/kg perorally
Protocol: Antiulcerous activity of substances was tested on a model of experimental water immersion stress with immobilization. […] After that, gastric mucous membrane was investigated, number and sizes of ulcers were counted, ulceration index was determined (an average sum of ulcer lengths per one animal in a group).

Question: For `O=C1O[C@H]([C@@H](O)CO)C(O)=C1O` [Ascorbic acid, reference compound], which “IC50, suppressing chemiluminescence by 50%” value [1] is on record?
Answer: The value was 2.39 µg/mL (≈ 13.6 µM).

Question: Which results are given for `CO[C@H]1/C=C/O[C@@]2(C)Oc3c(C)c(O)c4c(O)c(cc(O)c4c3C2=O)NC(=O)/C(C)=C\C=C\[C@H](C)[C@H](O)[C@@H](C)[C@@H](O)[C@@H](C)[C@H](OC(C)=O)[C@@H]1C` [Rifamycin]?
Answer: MIC [2]: 0.05 µg/mL (≈ 0.0717 µM); MIC [3]: 0.25 µg/mL (≈ 0.358 µM)

Question: With `[H]/N=C(/N)N[C@H]1[C@H](O)[C@@H](O)[C@H](O[C@@H]2O[C@@H](C)[C@](O)(C=O)[C@H]2O[C@@H]2O[C@@H](CO)[C@H](O)[C@@H](O)[C@@H]2NC)[C@@H](N/C(N)=N\[H])[C@@H]1O` [Streptomycin] as the compound, how does the MIC [2] read?
Answer: The MIC was 0.2 µg/mL (≈ 0.344 µM).

Question: And the MIC [3]?
Answer: Its MIC is 0.15 µg/mL (≈ 0.258 µM).

Question: For `O=C1NC(=O)N(c2cccc(F)c2)C(=O)C1=NO` [XXVI], which “Maximal tolerable dose, concentration of test substances” value [4] is on record?
Answer: Its value is 300 mg/kg.

Question: Which results are given for `CN1C(=O)C(=NO)C(=O)N(C)C1=S` [XL]?
Answer: MIC, M. tuberculosis [2]: 12.5 µg/mL (≈ 62.1 µM); MIC, M. smegmatis [3]: 3.1 µg/mL (≈ 15.4 µM); Content of IFN in induction mixture after 24-hour incubation ([5]; substance 1 mg/l): 5.1 ± 1.0 IU/3 × 10^4 lymph./ml; Content of IFN in induction mixture after 24-hour incubation ([5]; substance 10 mg/l): 11.3 ± 1.5 IU/3 × 10^4 lymph./ml; Content of IFN in induction mixture after 24-hour incubation ([5]; substance 100 mg/l): 22.8 ± 1.0 IU/3 × 10^4 lymph./ml

Question: With `NNC(=O)c1ccncc1` [Isoniazid] as the compound, how does the MIC [2] read?
Answer: Its MIC is 0.1 µg/mL (≈ 0.729 µM).

Question: And the MIC [3]?
Answer: Its MIC is 1.5 µg/mL (≈ 10.9 µM).

Question: Which “Maximal tolerable dose, concentration of test substances” value [4] does the source give for `O=C1NC(=O)N(c2ccc(Br)cc2)C(=O)C1=NO` [XXIX] here?
Answer: Its value is 300 mg/kg.

Question: What about the “Quantity of the unchanged cells (number of cells in 100 visual fields)” value ([6]; Vero cells, 36 hours, cell control 10000) of the same compound?
Answer: The value was 3000.

Question: What about the “percentage of protection of cells from virus” value ([6]; compared to the control of cell culture) of the same compound?
Answer: The value was “(30%)”.

Question: And the “% of inhibition of platelet aggregation” value [7]?
Answer: Its value is 16.4 ± 3.1%.

Question: What about the “Point number (behavioral depression)” value [8] of the same compound?
Answer: The value was 32.

Question: And the AlAT [9]?
Answer: The AlAT was 0.40 ± 0.04 mmol/L/h.

Question: What about the “% of reducing AlAT” value [9] of the same compound?
Answer: The value was −52%.

Question: With `CN1CC[C@]23c4c5ccc(O)c4O[C@H]2[C@@H](O)C=C[C@H]3[C@H]1C5.O=S(=O)(O)O` [Morphine, Morphine sulfate, reference compound] as the compound, how does the “Latent period of response, before dosing” value ([10]; before morphine sulfate 2 mg/kg) read?
Answer: Its value is 8.3.

Question: And the “Latent period of response, 30 minutes after dosing” value ([10]; morphine sulfate 2 mg/kg)?
Answer: Its value is 14.6.

Question: What does the source list for `O=C1NC(=O)N(C2CCCCC2)C(=O)C1=NO` [VIII]?
Answer: % of inhibition of platelet aggregation [7]: 68.9 ± 5.3%; % change of glucose relative to glucose control [11]: −18%; Glucose in blood ([11]; after one hour, glucose control 8.26 ± 0.50): 6.77 ± 0.61 mmol/L; % of animals with ulcers ([12]; rats, 4 hours stress, control 100): 100%; % of reducing number of ulcers ([12]; versus control): −64%; % of reducing ulceration index ([12]; versus control): −35%; Number of lesions ([12]; control 8.3 ± 2.5): 3.0 ± 1.3; ulceration index ([12]; control 10.5 ± 5.7): 6.8 ± 4.4; AlAT [9]: 0.48 ± 0.19 mmol/L/h; % of reducing AlAT [9]: −42%

Question: With `CC[C@@H](CO)NCCN[C@@H](CC)CO` [Ethambutol] as the compound, how does the MIC [2] read?
Answer: The MIC was 5 µg/mL (≈ 24.5 µM).

Question: And the MIC [3]?
Answer: Its MIC is 5 µg/mL (≈ 24.5 µM).

Question: Which MIC [2] does the source give for `CC1COc2c(N3CCN(C)CC3)c(F)cc3c(=O)c(C(=O)O)cn1c23` (stereo not shown) [Ofloxacin] here?
Answer: The MIC was 0.5 µg/mL (≈ 1.38 µM).

Question: What about the MIC [3] of the same compound?
Answer: Its MIC is 0.5 µg/mL (≈ 1.38 µM).

Question: For `O=C(CCCN1CCC(O)(c2ccc(Cl)cc2)CC1)c1ccc(F)cc1` [Haloperidol, reference compound], which “Point number (behavioral depression)” value [8] is on record?
Answer: The value was 27.
